# Measurements from US20090196950A1, “METHODS OF FEEDING PIGS AND PRODUCTS COMPRISING BENEFICIAL FATTY ACIDS” (Monsanto Company, priority 2008, published 2009).
# Experiment: 35 day feeding study in pigs: fatty acid composition of pork tissues (belly, loin, ham, skin) by GC-FID of FAMEs
# Assay type: in vivo
# Experimental: A 35 day study was conducted to determine whether pigs fed a diet containing SDA could produce meat with improved fatty acid profiles including increased levels of SDA, EPA, and DHA.
# A control diet (Treatment 1) formulated to meet or exceed NRC (1998) nutrient requirements for pigs in the late finishing phase (approximately 80-120 kg BW containing 1.14% corn oil and no added SDA ethyl ester (70% w/w SDA) were fed ad libitum during an acclimation period of at least 1 week duration. Ethoxyquin was included in all diets as an antioxidant at a concentration of 150 parts per million (0.015%, as-fed basis), the maximum level allowed by FDA regulation in animal feeds. The same control diet was fed ad libitum to the control pigs (pen receiving Treatment 1) throughout a 35-day test period. Four test diets (Treatment 2, 3, 4, and 5) with SDA ethyl ester substituted for corn oil to provide 0.2, 0.4, 0.6 and 0.8% (w/w SDA active ingredient, as-is basis) were fed ad libitum to one pen of four pigs throughout the 35-day test period Table 4). All diets were fed in meal form.
# All pigs were individually weighed at initiation of the acclimation and test period, and immediately prior to slaughter. Feed consumption per pen was recorded. […] Live weights prior to slaughter and hot carcass weights were recorded. […] Prior to removing the sample for sensory and fatty and proximate analysis from the belly the firmness of the belly was evaluated using a flop test. At 24 hr postmortem fat thickness (10th rib), loin eye area (10th rib), visual color, firmness and marbling, Minolta color (L*a*b*), pH, and drip loss were measured. […]
# In order to evaluate the fatty acid composition of pig tissues (loin, ham, skin, and belly), samples were stored at −80° C. until evaluation. […] Resultant fatty acid methyl esters (FAME's) were separated by capillary gas chromatography (GC) and detected by flame ionization detector (FID). […] Quantification was achieved by using an internal standard (c15:0 triacylglyceride (TAG) for pig tissue samples and c17:0 TAG for diet samples). […]
smiles,measurement,setting,value
"CC/C=C\C/C=C\C/C=C\C/C=C\CCCCC(=O)O [SDA, stearidonic acid]","enrichment of SDA, ETA, and EPA in belly, loin, ham, and skin tissues","0.2-0.8% SDA in feed, 35 days","enriched in belly, loin, ham, and skin tissues in a dose dependent manner"
same,"levels of SDA, ETA, EPA, DPA in belly, loin, ham and skin tissues and DHA in ham tissue as compared to the control","SDA supplementation, 35 days",higher levels
same,"omega 3 fatty acid enrichment in belly, loin, ham and skin tissues as compared to the control",pigs fed SDA for the last 35 days prior to slaughter,significant increase
